Assay: Solubility of FT4 compounds and polymer in organic solvents
Type: physicochemical
Conditions: for solubility in diethyl ether / solubility in hexane: room temperature
Description: Table 2 provides solubility properties and a solubility comparison of di-Br compound 7 and di-tin compound 8.

| Structure (SMILES) | solubility in direct comparisons to compound 8 (Table 2 solvents) | solubility in diethyl ether | solubility in hexane | solubility in hexane, toluene, CH2Cl2, or mixtures thereof (compared to the corresponding di-bromo compound Br-DC17FT4-Br) |
| --- | --- | --- | --- | --- |
| CCCCCCCCCCCCCCCCCc1c(Br)sc2c1sc1c3sc(Br)c(CCCCCCCCCCCCCCCCC)c3sc21 [compound 7] | essentially insoluble or only partially soluble | practically insoluble | practically insoluble |  |
| CCCCCCCCCCCCCCCCCc1[c]([Sn]([CH3])([CH3])[CH3])sc2c1sc1c3s[c]([Sn]([CH3])([CH3])[CH3])c(CCCCCCCCCCCCCCCCC)c3sc21 [compound 8] |  | freely soluble | freely soluble | excellent solubility |

— patent US8278346B2, “Di-tin fused thiophene compounds and polymers and methods of making” (Corning Incorporated, priority 2010, dated 2012)
